Source: US11554182B2, “Macrocyclic complexes of alpha-emitting radionuclides and their use in targeted radiotherapy of cancer” (CORNELL UNIVERSITY, priority 2017, dated 2023)

Assay: In vivo biodistribution of ^225Ac complexes after intravenous injection
Parameters: species or system C57BL/6 mice
Procedure: In Vivo Biodistribution of ^225Ac Complexes of Macropa and DOTA. All experiments were approved by the Institutional Animal Care Committee (IACC) of the University of British Columbia and were performed in accordance with the Canadian Council on Animal Care Guidelines. A total of 9 female C57BL/6 mice (6-8 weeks old, 20-25 g) were used for the biodistribution study of each radiometal complex, n=3 for each time point.
Macropa (100 μL of a 1 mg/mL solution in NH4OAc) was diluted with 387 μL of NH4OAc (1 M, pH 7), and an aliquot (203 μL) of ^225Ac(NO3)3 (˜157 kBq) was then added; the pH of this solution was adjusted to 6.5-7 by the addition of 1 M NaOH (210 μL, trace metal grade). After 5 min at ambient temperature, the reaction solution was analyzed by TLC (0.4 M pH 4 sodium citrate as the eluent), which confirmed >95% radiochemical yield. The reaction was allowed to proceed overnight, and the radiochemical yield was again confirmed to be >95% the following morning. At this time, mice were anesthetized by 2% isoflurane, and approximately 100 μL (10-15 kBq) of the [^225Ac(macropa)]^+ complex were injected into the tail vein of each mouse. After injection, mice were allowed to recover and roam freely in their cages, and were euthanized by CO2 inhalation at 15 min, 1 h, or 5 h (n=3 at each time point) post-injection. Blood was collected by cardiac puncture and placed into an appropriate test tube for scintillation counting. Tissues collected included heart, liver, kidneys, lungs, small intestine, large intestine, brain, bladder, spleen, stomach, pancreas, bone, thyroid, tail, urine, and feces. Tissues were weighed and then counted with a calibrated gamma counter (Packard, Cobra II model 5002) using three energy windows: 60-120 keV (window A), 180-260 keV (window B), and 400-480 keV (window C). Counting was performed both immediately after sacrifice and after 7 days; counts were decay corrected from the time of injection and then converted to the percentage of injected dose (% ID) per gram of tissue (% ID/g). No differences were noted between the data; therefore, the biodistributions are reported using the data acquired immediately using window A.
The biodistribution studies of [^225Ac(DOTA)]^− and ^225Ac(NO3)3 were carried out as described above for [^225Ac(macropa)]^+, with the following modifications. [^225Ac(DOTA)]^− was prepared by adding ^225Ac(NO3)3 (338 μL, 1.1 MBq) to a solution of DOTA (100 μg, 20 mg/mL in H2O) in NH4OAc (467 μL, 0.15 M, pH 7). The pH of the solution was adjusted to 7 using NH4OAc (150 μL, 1 M, pH 7) and the solution was heated at 85° C. for 45 min. RCY>99% was confirmed by TLC as described above. [^225Ac(DOTA)]^− was diluted with saline to a final concentration of 0.05 MBq/100 μL, and 100 μL were injected into each mouse. ^225Ac(NO3)3 (˜58 μL, 0.4 MBq) was diluted and injected in the same manner as [^225Ac(DOTA)]^−. One mouse that was to be euthanized at the 5 h time point in the [^225Ac(DOTA)]^− study died shortly after injection. In the same manner, one mouse that was to be euthanized at the 1 h time point in the ^225Ac(NO3)3 study died.
The in vivo stability [^225Ac(macropa)]^+ was examined by comparing its biodistribution to those of ^225Ac(NO3)3 and [^225Ac(DOTA)]^−. C57BL/6 mice were injected via tail vein with 10-50 kBq of each radiometal complex and were sacrificed after 15 min, 1 h, or 5 h. The amount of ^225Ac retained in each organ was quantified by gamma counting and reported as the percent of injected dose per gram of tissue (% ID/g). The results of these studies are compiled in Tables 1-3. Inadequate stability of an ^225Ac complex leading to the loss of radioisotope in vivo is manifested by the accumulation of ^225Ac in the liver, spleen, and bone of mice.^[11,12,32] […] The biodistribution profile of [^225Ac(macropa)]^+ (FIG. 3B) differs markedly from that of ^225Ac(NO3)3. […]

[1] = 15 min after i.v. injection, energy window A (60-120 keV)
[2] = 15 min after i.v. injection, energy window B (180-260 keV)
[3] = 15 min after i.v. injection, energy window C (400-480 keV)
[4] = 1 h after i.v. injection, energy window A (60-120 keV)
[5] = 1 h after i.v. injection, energy window B (180-260 keV)

## O=C([O-])c1cccc(CN2CCOCCOCCN(Cc3cccc(C(=O)[O-])n3)CCOCCOCC2)n1.[225Ac+3] [[^225Ac(macropa)]^+]
[1]
  % ID/g in bladder: 46.74 % ID/g
  % ID/g in blood: 5.11 % ID/g
  % ID/g in bone (femur + joint): 2.52 % ID/g
  % ID/g in brain: 0.26 % ID/g
  % ID/g in feces: 0.91 % ID/g
  % ID/g in heart: 2.19 % ID/g
  % ID/g in kidneys: 27.55 % ID/g
  % ID/g in large intestines: 2.40 % ID/g
  % ID/g in liver: 2.28 % ID/g
  % ID/g in lungs: 5.98 % ID/g
  % ID/g in pancreas: 1.46 % ID/g
  % ID/g in small intestines: 2.64 % ID/g
  % ID/g in spleen: 2.52 % ID/g
  % ID/g in stomach: 2.97 % ID/g
  % ID/g in tail: 8.84 % ID/g
  % ID/g in thyroids: 28.23 % ID/g
  % ID/g in urine: 1378.82 % ID/g
[2]
  % ID/g in bladder: 47.64 % ID/g
  % ID/g in blood: 5.23 % ID/g
  % ID/g in bone (femur + joint): 2.69 % ID/g
  % ID/g in brain: 0.23 % ID/g
  % ID/g in feces: 1.04 % ID/g
  % ID/g in heart: 2.39 % ID/g
  % ID/g in kidneys: 27.86 % ID/g
  % ID/g in large intestines: 2.53 % ID/g
  % ID/g in liver: 2.17 % ID/g
  % ID/g in lungs: 5.83 % ID/g
  % ID/g in pancreas: 1.63 % ID/g
  % ID/g in small intestines: 2.59 % ID/g
  % ID/g in spleen: 2.55 % ID/g
  % ID/g in stomach: 3.29 % ID/g
  % ID/g in tail: 9.39 % ID/g
  % ID/g in thyroids: −2.22 % ID/g
  % ID/g in urine: 1541.60 % ID/g
[3]
  % ID/g in bladder: 64.68 % ID/g
  % ID/g in blood: 6.49 % ID/g
  % ID/g in bone (femur + joint): 3.74 % ID/g
  % ID/g in brain: 0.17 % ID/g
  % ID/g in feces: 1.26 % ID/g
  % ID/g in heart: 2.87 % ID/g
  % ID/g in kidneys: 33.46 % ID/g
  % ID/g in large intestines: 3.02 % ID/g
  % ID/g in liver: 2.72 % ID/g
  % ID/g in lungs: 7.55 % ID/g
  % ID/g in pancreas: 3.00 % ID/g
  % ID/g in small intestines: 3.46 % ID/g
  % ID/g in spleen: 3.79 % ID/g
  % ID/g in stomach: 3.45 % ID/g
  % ID/g in tail: 11.75 % ID/g
  % ID/g in thyroids: −6.46 % ID/g
  % ID/g in urine: 2387.66 % ID/g
[4]
  % ID/g in bladder: 6.23 % ID/g
  % ID/g in blood: 0.40 % ID/g
  % ID/g in bone (femur + joint): 0.31 % ID/g
  % ID/g in brain: 0.12 % ID/g
  % ID/g in feces: 0.28 % ID/g
  % ID/g in heart: 0.31 % ID/g
  % ID/g in kidneys: 13.36 % ID/g
  % ID/g in large intestines: 0.36 % ID/g
  % ID/g in liver: 0.75 % ID/g
  % ID/g in lungs: 0.51 % ID/g
  % ID/g in pancreas: 0.19 % ID/g
  % ID/g in small intestines: 1.10 % ID/g
  % ID/g in spleen: 0.51 % ID/g
  % ID/g in stomach: 0.41 % ID/g
  % ID/g in tail: 1.82 % ID/g
  % ID/g in thyroids: 3.18 % ID/g
  % ID/g in urine: 489.11 % ID/g
[5]
  % ID/g in bladder: 5.92 % ID/g
  % ID/g in blood: 0.39 % ID/g
  % ID/g in bone (femur + joint): 0.17 % ID/g
  % ID/g in brain: 0.12 % ID/g
  % ID/g in feces: 0.27 % ID/g
  % ID/g in heart: 0.20 % ID/g
  % ID/g in kidneys: 12.97 % ID/g
  % ID/g in large intestines: 0.22 % ID/g
  % ID/g in liver: 0.70 % ID/g
  % ID/g in lungs: 0.54 % ID/g
